Measured values from the supplement of paper PMC11208160.

Assay: recombinant UMI read abundance after kanamycin selection (control-corrected) (log10(CPM+1)); higher = more efficient recombination; extreme values may be limits of the assay; sequences stand for … in AGTGCAGAGAAAATCGGCCAGTTTTCTCTGCCTGCAGTCCGCATGCCGTGGGACCCCTTGGGTTCTAACCTGTTGCCTAGATTTATGCAGCGGACTGCCTTTCTCCCAAAGTGATAAACCGG…AGGTTGGTTTCACT; site = the 11-nt donor
How it was run: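 Each donor and donor-binding-loop pair was tracked by a 12-nt UMI on a plasmid carrying a promoterless kanamycin gene. With a second plasmid supplying a fixed target and T7-inducible IS621 bridge recombinase, the pool was plated in Escherichia coli on IPTG (0.07 mM) plus kanamycin or unselected. Sequencing of recombinant UMIs across the donor–target junction gave counts expressed as log10(CPM+1) after replicate averaging and control-derived scaling.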
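Also: IS621 bridge recombinase in Escherichia coli cells against a fixed T5 target plasmid.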

Sequence | recombinant UMI read abundance (log10)
CTTCTCTCATGGACCGGTTTTCCCGGTAATCCGTATTTGTA (site CTTCTCTCTAA) | 0.394
CTTCTCTCATGGACCGGTTTTCCCGGTAATCCGTATTTGTA (site CTTCTCTCTCA) | 0.552
CTTCTCTCATGGACCGGTTTTCCCGGTAATCCGTATTTGTA (site CTTCTCTCTGA) | 0.448
CTTCTCTCATGGACCGGTTTTCCCGGTAATCCGTATTTGTA (site CTTCTCTCTTA) | 2.28
CTTCTCTCATGGACCGGTTTTCCCGGTAATCCGTATTTGTA (site CTTCTCTCTTC) | 0.278
CTTCTCTCATGGACCGGTTTTCCCGGTAATCCGTATTTGTA (site CTTCTCTCTTG) | 0.558
CTTCTCTCATGGACCGGTTTTCCCGGTAATCCGTATTTGTA (site CTTCTCTCTTT) | 0.676
CTTCTCTCATGGACCGGTTTTCCCGGTAATCCGTATTTGTA (site CTTCTGTCTTA) | 0.00544
CTTCTCTCATGGACCGGTTTTCCCGGTAATCCGTATTTGTA (site CTTCTTTCTTA) | 0
CTTCTCTCATGGACCGGTTTTCCCGGTAATCCGTATTTGTA (site CTTGTCTCTTA) | 0.00827
CTTCTCTCATGGACCGGTTTTCCCGGTAATCCGTATTTGTA (site CTTTTCTCTTA) | 0
CTTCTCTCATGGACCGGTTTTCCCGGTAATCCGTATTTGTA (site GTTCTCTCTTA) | 0.0236
CTTCTCTCATGGACCGGTTTTCCCGGTAATCCGTATTTGTA (site TTTCTCTCTTA) | 0.396
CTTCTCTCATGGACCGGTTTTCCCGGTAATCCGTATTTGTG (site CTTCTCTCTAA) | 0.0117
CTTCTCTCATGGACCGGTTTTCCCGGTAATCCGTATTTGTG (site CTTCTCTCTCA) | 0.154
CTTCTCTCATGGACCGGTTTTCCCGGTAATCCGTATTTGTG (site CTTCTCTCTGA) | 0
CTTCTCTCATGGACCGGTTTTCCCGGTAATCCGTATTTGTG (site CTTCTCTCTTA) | 0
CTTCTCTCATGGACCGGTTTTCCCGGTAATCCGTATTTGTT (site CTTCTCTCTAA) | 2.22
CTTCTCTCATGGACCGGTTTTCCCGGTAATCCGTATTTGTT (site CTTCTCTCTCA) | 0.0142

Sequence | recombinant UMI read abundance (log10)
CTTCTCTCATGGACCGGTTTTCCCGGTAATCCGTATTTGTT (site CTTCTCTCTGA) | 0
CTTCTCTCATGGACCGGTTTTCCCGGTAATCCGTATTTGTT (site CTTCTCTCTTA) | 0.757
CTTCTGTCATGGACCGGTTTTCCCGGTAATCCGTATTTGTA (site CTTCTATCTTA) | 2.41
CTTCTGTCATGGACCGGTTTTCCCGGTAATCCGTATTTGTA (site CTTCTCTCTTA) | 0.00482
CTTCTGTCATGGACCGGTTTTCCCGGTAATCCGTATTTGTA (site CTTCTGTCTTA) | 2.01
CTTCTGTCATGGACCGGTTTTCCCGGTAATCCGTATTTGTA (site CTTCTTTCTTA) | 0
CTTCTTTCATGGACCGGTTTTCCCGGTAATCCGTATTTGAC (site CTTCTTTCTGT) | 0
CTTCTTTCATGGACCGGTTTTCCCGGTAATCCGTATTTGTA (site CTTCTATCTTA) | 0.00989
CTTCTTTCATGGACCGGTTTTCCCGGTAATCCGTATTTGTA (site CTTCTCTCTTA) | 0
CTTCTTTCATGGACCGGTTTTCCCGGTAATCCGTATTTGTA (site CTTCTGTCTTA) | 0.00353
CTTCTTTCATGGACCGGTTTTCCCGGTAATCCGTATTTGTA (site CTTCTTTCTTA) | 0
CTTGGACCATGGACCGGTTTTCCCGGTAATCCGTATTTGTT (site CTTGGACCTAA) | 0.00553
CTTGGATCATGGACCGGTTTTCCCGGTAATCCGTATTTGAC (site CTAGTATCTGT) | 0
CTTGGATCATGGACCGGTTTTCCCGGTAATCCGTATTTGAC (site CTTGGATCTGT) | 0
CTTGGATCATGGACCGGTTTTCCCGGTAATCCGTATTTGCA (site CTTGGATCTTG) | 2.59
CTTGGCCCATGGACCGGTTTTCCCGGTAATCCGTATTTGTA (site CTTGGCCCTTA) | 0.0132
CTTGTATCATGGACCGGTTTTCCCGGTAATCCGTATTTGAT (site CTAGTATCTGT) | 0
CTTGTATCATGGACCGGTTTTCCCGGTAATCCGTATTTGAT (site CTTGTATCTAT) | 1.29
CTTGTCTCATGGACCGGTTTTCCCGGTAATCCGTATTTGAA (site CTTGTCTCTTT) | 1.85

Sequence | recombinant UMI read abundance (log10)
CTTGTGGCATGGACCGGTTTTCCCGGTAATCCGTATTTGGA (site CTTGTGGCTTC) | 0.306
CTTGTGTCATGGACCGGTTTTCCCGGTAATCCGTATTTGAC (site CTAGTATCTGT) | 0
CTTGTGTCATGGACCGGTTTTCCCGGTAATCCGTATTTGAC (site CTTGTGTCTGT) | 0.301
CTTTAAACATGGACCGGTTTTCCCGGTAATCCGTATTTGTA (site CTTTAAACTTA) | 1.06
CTTTACACATGGACCGGTTTTCCCGGTAATCCGTATTTGCT (site CTATACACTAG) | 2.27
CTTTACACATGGACCGGTTTTCCCGGTAATCCGTATTTGCT (site CTCTACACTAG) | 1.2
CTTTACACATGGACCGGTTTTCCCGGTAATCCGTATTTGCT (site CTGTACACTAG) | 1.59
CTTTACACATGGACCGGTTTTCCCGGTAATCCGTATTTGCT (site CTTTACACTAG) | 1.81
CTTTACACATGGACCGGTTTTCCCGGTAATCCGTATTTGGG (site CTTTACACTCC) | 0.147
CTTTACGCATGGACCGGTTTTCCCGGTAATCCGTATTTGTT (site CTTTACGCTAA) | 0.6
CTTTCGGCATGGACCGGTTTTCCCGGTAATCCGTATTTGTG (site CTTTCGGCTCA) | 0.003
GAAAACGCATGGACCGGTTTTCCCGGTAATCCGTATTTGGA (site GAAAACGCTTC) | 1.02
GAAACCTCATGGACCGGTTTTCCCGGTAATCCGTATTTGGG (site GAAACCTCTCC) | 0.698
GAACGTGCATGGACCGGTTTTCCCGGTAATCCGTATTTGTC (site GAACGTGCTGA) | 2.1
GAAGAGTCATGGACCGGTTTTCCCGGTAATCCGTATTTGTT (site GAAGAATCTAA) | 3.37
GAAGAGTCATGGACCGGTTTTCCCGGTAATCCGTATTTGTT (site GAAGACTCTAA) | 0.941
GAAGAGTCATGGACCGGTTTTCCCGGTAATCCGTATTTGTT (site GAAGAGTCTAA) | 2.91
GAAGAGTCATGGACCGGTTTTCCCGGTAATCCGTATTTGTT (site GAAGATTCTAA) | 0.417
GAAGATTCATGGACCGGTTTTCCCGGTAATCCGTATTTGCT (site GAAGATTCTAA) | 0.178
